Laboratory results published in patent US4031077A, “Antibacterial 3-phosphono penams” (priority 1976, dated 1977).
Values joined by “and” are separate entries in the source; they are usually repeats but may differ in a detail not shown here. Equal values may be shown once. Where a name gives a salt, the structure may show the parent alone. Read-outs that look alike come from different tables or passages of the source.

Columns and labels:
[1] = tested on: Strep. zoo.; type: cell-based, Streptococcus zoobacter; details: Strep. zoo. strain 02H001, brain-heart infusion agar, 10^5-10^6 cells, 37° C., anaerobic, sodium salt, Test No. 1-3
[2] = tested on: Strep. equi.; test: microbe, parasite or virus in culture; type: cell-based, Streptococcus equis; details: 10^5-10^6 cells, 37° C., anaerobic, sodium salt, Test No. 1-2
[3] = tested on: Staph. aureus; type: cell-based, Staphlococcus aureus

## CC1(C)S[C@@H]2C(NC(=O)COc3ccccc3)C(=O)N2C1P(=O)(O)O.[Na] (stereo partly drawn) [6-(2-Phenoxyacetamido)-2,2-dimethyl-3-phosphonopenam, sodium salt]
[1]
  MIC (minimal inhibitory concentration): 100 µg/mL and 200 µg/mL
[2]; Strep. equi. strain 02I001, brain-heart infusion agar
  MIC (minimal inhibitory concentration): 100 µg/mL
[3]; Staph. aureus strain 01A005, brain-heart infusion agar, 10^5-10^6 cells, 37° C., anaerobic, sodium salt, Test No. 1-3
  MIC (minimal inhibitory concentration): > 200 µg/mL
[3]; Staph. aureus strain 01A006, brain-heart infusion agar, 10^5-10^6 cells, 37° C., anaerobic, sodium salt, Test No. 1-3
  MIC (minimal inhibitory concentration): > 200 µg/mL

## COP(=O)(O)C1N2C(=O)C(NC(=O)COc3ccccc3)C2SC1(C)C (stereo not drawn) [6-(2-Phenoxyacetamido)-2,2-dimethyl-3-(0-methylphosphono)penam, sodium salt]
[2]; Streptococcus equi, Strep. equi. strain 02I001, brain-heart infusion agar, read-out: MIC (minimal inhibitory concentration)
  MIC: 200 µg/mL
[3]; Staph. aureus strain 01A006; brain-heart infusion agar, 10^5-10^6 cells, 37° C., anaerobic; sodium salt; Test No. 1-3
  MIC (minimal inhibitory concentration): 200 µg/mL
